Patent US8563516B2, “Foxp3 peptide vaccine” (OncoTherapy Science, Inc., priority 2007, dated 2013)

Tests used:
Format in all cases: cell-based, human
peptide-pulsed T2 cells = assay: IFN-gamma ELISPOT on CTLs induced with HLA-A0201 restricted Foxp3 peptides; conditions: FIG. 2A/2B/2C
Source text: (§1) Monocyte-derived dendritic cells (DCs) were used as antigen-presenting cells (APCs) to induce CTL responses against peptides presented on HLA. DCs were generated in vitro as described elsewhere (Horiguchi S. et al. Cancer Res. 59:2950-6). Specifically, peripheral blood mononuclear cells (PBMCs) isolated from normal volunteer (HLA-A*2402 and/or HLA-A*0201) with Ficoll-Plaque (Pharmacia) solution were separated by adherence to plastic tissue culture dish (Becton Dickinson) so as to enrich them for the monocyte fraction. The monocyte-enriched population was cultured in the presence of 1000 U/ml of GM-CSF (R&D System) and 1000 U/ml of IL-4 (R&D System) in AIM-V medium (Invitrogen) containing 2% heat-inactivated autologous serum (AS). After 7 days in the culture, the cytokine-generated DCs were pulsed with 20 mcg/ml of the synthesized peptides in the presence of 3 mcg/ml of beta2-microglobulin for 4 hrs at 20 degrees C. in AIM-V medium. These peptide-pulsed DCs were then inactivated with mitomycin C (MMC) (30 mcg/ml for 30 mins) and mixed at a 1:20 ratio with autologous CD8+ T cells, obtained by positive selection with CD8 Positive Isolation Kit (Dynal). These cultures were set up in 48-well plates (Corning); each well contained 1.5×10^4 peptide-pulsed DCs, 3×10^5 CD8+ T cells and 10 ng/ml of IL-7 (R&D System) in 0.5 ml of AIM-V/2% AS. Three days later, these cultures were supplemented with IL-2 (CHIRON) to a final concentration of 20 IU/ml. On day 7 and 14, the T cells were further restimulated with the peptide-pulsed autologous DCs. The DCs were prepared each time through the same procedure described above. CTL activity was tested against peptide-pulsed A24LCL cells or T2 cells after the 3rd round of peptide stimulation on day 21.
(§2) To examine the specific CTL activity, IFN-gamma ELISPOT assay and IFN-gamma ELISA were performed. Briefly, peptide-pulsed A24-LCL, T2 cell (1×10^4/well) or the cells endogenously expressing Foxp3 and HLA molecule was prepared as a stimulator cells. Cultured CTL lines in 48 wells were used as a responder cells. IFN-gamma ELISPOT assay and IFN-gamma ELISA were performed under manufacture procedure.
Resulting CTLs showing detectable specific CTL activity were shown in FIG. 2A, FIG. 2B and FIG. 2C when performed by IFN-gamma ELISPOT assay.

[1] = system: 293T that transfected both Foxp3 and HLA-A02; assay: Specific CTL activity against target cells expressing Foxp3 and HLA-A02
Method: as §2
(§3) The established CTL clone raised against these peptides were examined for their ability to recognize the target cells endogenously expressing Foxp3 and HLA-A*24 or 02. Specific CTL activity against 293T transfected both full length of Foxp3 gene and HLA-A*24 or 02 molecule, which is specific model for the target cells endogenously express Foxp3 and HLA-A*24 or 02, was tested using the CTL lines raised by Foxp3-A02-9-390 (SEQ ID NO: 15) and Foxp3-A02-9-252 (SEQ ID NO: 17) as effector cells. […] Furthermore, these peptides were epitope peptides, which can utilize vaccine targeting Foxp3 expressed T-regs.

[2] = system: 293T that transfected both Foxp3 and HLA-A24; assay: Specific CTL activity against target cells expressing Foxp3 and HLA-A24
Method: as §2, §3

peptide pulsed T2 cells = assay: IFN-gamma ELISPOT: CTL line induced with Foxp3-9-252-WT against T2 cells pulsed with substituted peptide; conditions: FIG. 7A
Method: IFN-gamma ELISPOT assay was performed using CTL line induced with Foxp3-9-252-WT peptide as responder cells and T2 cells pulsed Foxp3-9-252-WT or Foxp3-9-252-9V peptide as stimulator cells, respectively. T2 cells without peptide pulse were prepared as control. […] IFN-gamma ELISA assay was performed using CTL line induced with Foxp3-9-252-WT peptide as responder cells (1×10^5 cells/well) and Foxp3-9-252-WT (-solid circle-), Foxp3-9-252-9V (-open circle-) or HIV-A02 (-solid triangle-) peptide pulsed T2 cells as stimulator cells (1×10^4 cells/well). Peptide pulse of stimulator cells was conducted at 37 degree Celsius for 2 hours in each kind of peptide and peptide concentration.
as §2
And then the present inventers examined whether peptide-pulsed stimulator cells using these substitutions were recognized by CTLs generated with Foxp3-9-252-WT peptide.

[3] = system: peptide-pulsed A24LCL cells or T2 cells; assay: In vitro CTL induction by peptide-loaded dendritic cells (summary statements)
Source text: Confirmation of CTL inducibility can be accomplished by inducing antigen-presenting cells carrying human MHC antigens (for example, B-lymphocytes, macrophages, and dendritic cells), or more specifically dendritic cells derived from human peripheral blood mononuclear leukocytes, and after stimulation with the peptides, mixing with CD8-positive cells, and then measuring the IFN-gamma produced and released by CTL against the target cells. As the reaction system, transgenic animals that have been produced to express a human HLA antigen (for example, those described in BenMohamed L, Krishnan R, Longmate J, Auge C, Low L, Primus J, Diamond D J, Hum Immunol 61(8): 764-79, 2000 August, Related Articles, Books, Linkout Induction of CTL response by a minimal epitope vaccine in HLA A*0201/DR1 transgenic mice: dependence on HLA class II restricted T(H) response) can be used. For example, the target cells can be radiolabeled with ^51Cr and such, and cytotoxic activity can be calculated from radioactivity released from the target cells. Alternatively, it can be examined by measuring IFN-gamma produced and released by CTL in the presence of antigen-presenting cells that carry immobilized peptides, and visualizing the inhibition zone on the media using anti-IFN-gamma monoclonal antibodies.
as §1, §2

## KLSAMQAHL (peptide vaccine) [SEQ ID NO 17]
peptide-pulsed T2 cells
  IFN-gamma production of CTLs stimulated with peptide, compared with the control: potent IFN-gamma production
[1]; against 293T transfected with both Foxp3 and HLA-A02, FIG. 4A/4B
  specific CTL activity of CTL lines raised by peptide: high specific CTL activity
[1]; controls of FIG. 4A/4B
  specific CTL activity against controls: did not show significant specific CTL activity
[2]; against 293T transfected with both Foxp3 and HLA-A24, FIG. 4C
  specific CTL activity of CTL lines raised by peptide: high specific CTL activity
[2]; controls of FIG. 4C
  specific CTL activity against controls: did not show significant specific CTL activity
Peptide pulsed T2 cells
  IFN-gamma production of Foxp3-9-252-WT induced CTLs against peptide pulsed T2 cells: produced IFN-gamma
[3]; against peptide pulsed target cells
  specific CTL activity: significant and specific CTL activity
[3]; in vitro stimulation of T-cells by DCs loaded with peptide
  establishment of CTLs: CTLs were successfully established
